We go through three compounds from patent publication US20050113396A1, “2-Guanidino-4-heterocyclylquinazolines” (priority 2001, published 2005).

Where a name gives a salt, the structure may show the parent alone.

In the case of `COc1ncc(-c2nc(N=C(N)N)nc3ccc(Cl)cc23)c(OC)n1` (as salt: HCl) [Example 235], the melting point was in the range of 270 to 275 °C. Then `NC(N)=Nc1nc(-n2c(Br)ccc2Br)c2cc(Cl)ccc2n1` (as salt: HCl) [Example 196], with 302 °C. As for `Cc1noc(C)c1-c1nc(N=C(N)N)nc2ccc(Cl)cc12` (as salt: HCl) [Example 215], the melting point fell in the range of 317 to 320 °C.
